Experimental data taken from patent US5686416A, “Increasing blood-brain barrier permeability with permeabilizer peptides” (priority 1993, dated 1997).

Columns and labels:
[1] = system: blood-brain barrier; assay: Uptake of radiolabelled substances of different molecular weights into the brain (Table I)
Protocol: The animals were euthanatized 10 minutes after the co-administration and the radioactivity present in brain was measured as described previously for ^14 C sucrose.

[2] = system: angiotensin II receptors; assay: Drinking behavior of rats with angiotensin II analogue; format: in vivo; details: 1 μg β-Asp^1 -angiotensin II, 10 μg permeabilizer A-7, with or without 8 μg saralasin i.v., 1 hour
Protocol: The volume of water consumed by each rat over a 1 hour interval was measured.
The saralasin was given because it is a known angiotensin II receptor antagonist. Again, the volume of water consumed by each rat over a 1 hour interval was measured.

[3] = system: blood-brain barrier; assay: Dose response of blood-brain barrier permeabilizers, sucrose uptake studies; format: in vivo; details: mice; various amounts; FIGS. 3c and 3d
Protocol: Female Balb/C mice weighing approximately 20 g were used. All solutions were prepared in sterile phosphate-buffered saline. […] In other experiments, mice were euthanitized 10 minutes after the ^14 C sucrose administration. Blood was collected in heparinized tubes and centrifuged to separate plasma from the resulting pellet. Radioactivity in a 100 μl aliquot of plasma was measured by liquid scintillation counting after the addition of 15 ml of Aquasol-2 (Dupont). The brain was removed and homogenized in 2.5 ml of water and 2.5 ml of 1% sodium dodecyl sulfate (SDS). One ml of the homogenate was aliquoted and added to 15 ml of Aquasol-2 for counting. Brain uptake of sucrose was calculated and graphically expressed as percent of injected dose×100. […] Each data point represents the mean ± s.d. from 8 mice.

[4] = system: opiate receptor; assay: Tail flick assay, antinociceptive effect of loperamide; format: in vivo; details: mice; nalorphine 10 mg/kg i.p. 15 minutes before
Protocol: Female Nalb/C mice weighing approximately 20 g were used. The tail flick assay was performed using a Tail Flick Apparatus model TF6 (Emdie Instruments, Maidens, Va.). The intensity of the heat source was adjusted daily to yield a reaction time between 2.0 and 3.2 seconds in naive untreated mice. The maximum time of exposure to the heat source allowed was 7.5 seconds. The tail withdrawal reaction time of each mouse was measured 4 times at 10 second intervals immediately prior to intravenous injections of the experimental substances via the tail vein. The last three values were averaged and taken as baseline value (Vo). Another set of four measurements was taken at the following intervals after tail vein injection of the opiate receptor agonist loperamide with and without the other agents: immediately, 5 min, 10 min, 15 min, 30 min, and 60 min. The last three values for each of these time points (V) were averaged. […] The results were expressed as percent of maximum antinociceptive response according to the formula: 100×(V-Vo)/(7.5-Vo).

[5] = system: C. neoformans; assay: Experimentally-induced cryptococcal meningitis in rabbits, CSF colony counts; format: in vivo, Cryptococcus neoformans; details: 1 mg AmB/kg daily i.v., Days 11 and 14
Protocol: Four day old cultures of C. neoformans containing 100 μg of chloramphenicol per mL were absorbed on cotton swabs, suspended in 15 mM phosphate-buffered saline, and adjusted to approximately 5×10^7 colony forming units (CFU)/mL. New Zealand White rabbits (2-3 kg) were immunosuppressed with 2.5 mg cortisone acetate administered intramuscularly (i.m.) beginning one day prior to inoculation with C. neoformans (Day 0), and once daily thereafter until study termination. On Day 1 rabbits were sedated with ketamine (100-150 mg) and xylazine (15-25 mg) i.m., and intracisternally inoculated with 0.3 mL of C. neoformans suspension. On Day 4 CSF was collected and plated on agar plates containing chloramphenicol to establish a baseline level for C. neoformans counts (CFU/mL), and drug treatment was then initiated. CSF samples were also withdrawn for C. neoformans counts on Days 7, 11 and 14. The duration of drug treatment was 10 days.
Each group size generally consisted of three to five animals. All treatments were administered via an ear vein, and permeabilizer A-7 was always administered immediately prior to AmB. CSF samples were always withdrawn prior to drug therapy on treatment days.

[6] = system: 9L Glioma cells; assay: Survival time of rats with brain tumor implants; format: in vivo
Protocol: Male Fischer 344 rats (200-250 g) were anesthetized with ketamine HCL (100 mg/kg) and acepromazine (10 mg/kg). The animals were placed in a stereotaxic device. The head of each animal was shaved and a midline incision was made to expose the skull. A small hole was drilled over the right sensorimotor cortex. A […] cell suspension (250,000 9L Glioma cells) was injected over 5 minutes into the right caudate putamen of each animal and the scalp sutured. Animals were observed daily for signs of failing health. When signs of very poor health were observed (eye hemorrhage or loss of righting reflex) animals were euthanatized and the brains examined for presence of tumor.
The results are shown in Table III as median survival with range.

[7] = target: T1, bradykinin receptor (Rattus norvegicus, UniProt P25023); assay: Displacement of [^3 H]-bradykinin binding on rat brain endothelial cells; details: no competing peptide; corrected for nonspecific binding
T1 construct: endogenous in cells; host or cells: cultured rat brain microvessel endothelial cells, passages 9 to 12, intact monolayers
T1 sequence (P25023 1-396): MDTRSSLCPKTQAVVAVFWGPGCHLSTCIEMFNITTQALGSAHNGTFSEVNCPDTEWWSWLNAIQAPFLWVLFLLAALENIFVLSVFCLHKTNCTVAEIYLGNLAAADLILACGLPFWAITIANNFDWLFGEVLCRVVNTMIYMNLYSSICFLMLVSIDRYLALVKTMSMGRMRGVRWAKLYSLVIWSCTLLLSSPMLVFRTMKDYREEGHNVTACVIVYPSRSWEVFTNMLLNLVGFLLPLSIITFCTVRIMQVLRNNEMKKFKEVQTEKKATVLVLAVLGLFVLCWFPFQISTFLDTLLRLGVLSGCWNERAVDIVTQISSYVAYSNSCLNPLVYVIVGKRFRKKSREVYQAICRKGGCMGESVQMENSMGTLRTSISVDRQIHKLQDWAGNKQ
Protocol: Endothelial cells employed in this study were isolated from individual rat brain microvessels and cultured. For binding studies, cells at passages 9 to 12 were seeded (at a 1:5 split) onto gelatinized 24-well tissue culture dishes. Binding experiments were conducted on day 7 after seeding. […] All subsequent manipulations were performed in the cold room, unless otherwise indicated.
To initiate binding incubations, the buffer was removed from cell layers and replaced with 0.4 mL fresh binding buffer at 4° C. containing [^3 H-pro^2,3 ]-bradykinin ([^3 H]-bradykinin) and competing non-radioactive peptides at concentrations indicated for the individual experiments. Triplicate wells were used for each experimental condition. For later determination of cell number, where indicated, certain wells were covered with binding buffer without radioligand and incubated in parallel with the other samples. […]
The dissociated cells were collected, diluted into 10 mL Isoton diluent, and cell numbers were determined with a Coulter counter. […] The two aliquots were pooled into a single scintillation vial, 10 mL of Hydrofluor scintillation fluid was added and samples were counted for tritium in a scintillation counter. […] Aliquots of each [^3 H]-bradykinin dilution that was added to the cells were counted along with the other samples. […]

[8] = system: dopamine receptors; details: rats; 300 μg domperidone with or without 10 μg permeabilizer A-7, one hour before apomorphine 0.75 mg/kg s.c.
Protocol: Domperidone is a dopamine receptor antagonist used clinically as an anti-emetic by virtue of its action at the area postrema outside the blood-brain barrier.
The activity cages were standard size rat cages with two photocell beams running across the floor of each cage. Any movement of the rat through either of the beams was recorded by a computer. Locomotor activity was measured as the number of beam breaks in a sequence of 10-minute intervals over a two hour period.
The motor activity of the rats was measured in activity cages over 10-minute intervals for up to 2 hours post-apomorphine injection.

[9] = Table IV, additional experiment

Molecule: ^3 H-Bovine Serum Albumin: radiolabelled bovine serum albumin, mol. weight 68,000
- % Injected Dose, +10 μg A-7 ([1]; mouse, in vivo, iv): 0.209 ± 0.056 % Injected Dose
- % Injected Dose, Control ([1]; mouse, in vivo, iv): 0.333 ± 0.098 % Injected Dose

Molecule: CNCC(=O)N[C@@H](CCCN=C(N)N)C(=O)N[C@H](C(=O)N[C@@H](Cc1ccc(O)cc1)C(=O)N[C@H](C(=O)N[C@@H](Cc1cnc[nH]1)C(=O)N1CCC[C@H]1C(=O)N[C@@H](C)C(=O)O)C(C)C)C(C)C [saralasin]
- water consumption [2]: remained within a normal range

Molecule: OC[C@H]1O[C@@](CO)(O[C@H]2O[C@H](CO)[C@@H](O)[C@H](O)[C@H]2O)[C@@H](O)[C@@H]1O [^14 C-Sucrose, Sucrose]
- % Injected Dose, +10 μg A-7 ([1]; mouse, in vivo, iv): 0.165 ± 0.049 % Injected Dose
- % Injected Dose, Control ([1]; mouse, in vivo, iv): 0.059 ± 0.014 % Injected Dose

Molecule: Inulin [^3 H-Inulin]
- % Injected Dose, +10 μg A-7 ([1]; mice, brain, labelled molecule i.v. with 10 μg permeabilizer A-7, 10 minutes, mean ± s.d.): 0.110 ± 0.016 % Injected Dose
- % Injected Dose, Control ([1]; mice, brain, labelled molecule i.v. with saline, 10 minutes, mean ± s.d.): 0.075 ± 0.018 % Injected Dose

Molecule: [D-Arg^0 ]-A-7 [A-14]
- uptake of ^14 C-sucrose into the brain compared with A-7 [3]: comparable to A-7

Molecule: C=CCN1CC[C@]23c4c5ccc(O)c4O[C@H]2[C@@H](O)C=C[C@H]3[C@H]1C5 [nalorphine]
- effect of pretreatment on the antinociceptive response to permeabilizer A-7 and loperamide [4]: completely antagonized

Molecule: C[C@@H]1[C@H](O)[C@@H](C)/C=C/C=C/C=C/C=C/C=C/C=C/C=C/[C@H](O[C@@H]2O[C@H](C)[C@@H](O)[C@H](N)[C@@H]2O)C[C@@H]2O[C@](O)(C[C@@H](O)C[C@@H](O)[C@H](O)CC[C@@H](O)C[C@@H](O)CC(=O)O[C@H]1C)C[C@H](O)[C@H]2C(=O)O [AmB, Amphotericin B]
- CSF C. neoformans counts compared to controls [5]: significantly lowered

Molecule: [dehydro Pro^2,7 ]-A-7 [A-9]
- uptake of ^14 C-sucrose into the brain compared with A-7 [3]: comparable to A-7

Molecule: N.N.[Cl][Pt][Cl] [Cisplatin]
- Median Survival ([6]; Table III, Fischer 344 rats, 9L glioma, i.v. treatment days 5 through 14, cisplatin 200 μg/rat, A-7 50 μg, bradykinin 1 mg): 13 days
- Survival, Range ([6]; Table III, Fischer 344 rats, 9L glioma, treatment days 5 through 14): 9 to 18 days
- Median Survival [6, 9]: 15.5 days
- Survival, Range [6, 9]: 12 to 18 days

Molecule: arginine-proline-proline-glycine-phenylalanine-serine-proline-phenylalanine-arginine [[^3 H]-bradykinin]
- Scatchard analysis of [^3 H]-bradykinin binding [7]: two affinity classes of [^3 H]-bradykinin binding site

Molecule: O=c1[nH]c2ccccc2n1CCCN1CCC(n2c(=O)[nH]c3cc(Cl)ccc32)CC1 [Domperidone]
- effect on motor activity induced by apomorphine [8]: little, if any, effect

B1: ^3 H-RNase: radiolabelled RNase, mol. weight 12,600 (protein, UniProt P61823 27-150, looked up)
Ribonuclease pancreatic: KETAAAKFERQHMDSSTSAASSSNYCNQMMKSRNLTKDRCKPVNTFVHESLADVQAVCSQKNVACKNGQTNCYQSYSTMSITDCRETGSSKYPNCAYKTTQANKHIIVACEGNPYVPVHFDASV
modifications: tritium label
- % Injected Dose, +10 μg A-7 ([1]; mouse, in vivo, iv): 0.117 ± 0.030 % Injected Dose
- % Injected Dose, Control ([1]; mouse, in vivo, iv): 0.123 ± 0.039 % Injected Dose

B2: ^3 H-Ovalbumin: radiolabelled ovalbumin, mol. weight 46,000 (protein, UniProt P01012 2-386, looked up)
Ovalbumin: GSIGAASMEFCFDVFKELKVHHANENIFYCPIAIMSALAMVYLGAKDSTRTQINKVVRFDKLPGFGDSIEAQCGTSVNVHSSLRDILNQITKPNDVYSFSLASRLYAEERYPILPEYLQCVKELYRGGLEPINFQTAADQARELINSWVESQTNGIIRNVLQPSSVDSQTAMVLVNAIVFKGLWEKAFKDEDTQAMPFRVTEQESKPVQMMYQIGLFRVASMASEKMKILELPFASGTMSMLVLLPDEVSGLEQLESIINFEKLTEWTSSNVMEERKIKVYLPRMKMEEKYNLTSVLMAMGITDVFSSSANLSGISSAESLKISQAVHAAHAEINEAGREVVGSAEAGVDAASVSEEFRADHPFLFCIKHIATNAVLFFGRCVSP
modifications: tritium label
- % Injected Dose, +10 μg A-7 ([1]; mouse, in vivo, iv): 0.093 ± 0.017 % Injected Dose
- % Injected Dose, Control ([1]; mouse, in vivo, iv): 0.079 ± 0.016 % Injected Dose
